The results in this text go back to patent US20210123061A1, “METHODS AND COMPOSITIONS FOR TREATING INFLAMMATORY DISEASE OR DISORDER” (THE BRIGHAM AND WOMEN'S HOSPITAL, INC., priority 2018, published 2021).

The structures appear in SMILES notation.

The subject of the test is RXXpS/T, RPS6-pSer235/236, PRAS40-pThr246. The test can be described thus: Immunoblot of RXXpS/T motif, RPS6 and PRAS40 phosphorylation in macrophages. Format: cell-based, human. The procedure: FIGS. 6A-6C show phospho-proteomics identified RSK substrates in human PBMC-derived macrophages. (FIG. 6A) Scheme of phospho-proteomics. Human PBMC-derived macrophages were treated with DMSO or BI-D1870 for two hours followed by IFN-γ stimulation for subsequent proteolysis and phospho-peptide enrichment using the anti-RXXpS/T antibody strategy. (FIG. 6B) Cell lysates were subjected to immunoblot analysis with anti-RPS6-pSer235/236, anti-RPS6, anti-PRAS40-pThr246, anti-PRAS40, or anti-Tubulin. N=2 donors. […] The average shortest distance of the same number of randomly selected genes to disease genes was calculated for N=250 realizations in order to compare the average shortest distance value to random expectation. Empirical p-values were calculated based on 100 degree-preserved randomizations of the first neighbor networks.
FIGS. 15A-15C show RXXpS/T pattern in human IFN-γ-stimulated macrophages. (FIG. 15A) Human PBBMC-derived macrophages were treated with DMSO or 10 μM BI-D1870 for 2 hours followed by stimulation with IFN-γ for 1 hour. Cell lysates were subjected to immunoblot analysis with anti-RXXpS/T antibody. (FIG. 15B) Four ellipse Venn diagram showing numbers of detected phospho-peptides in each sample. (FIG. 15C) A flow chart of screening for RSK-substrates in human macrophages. We identified 24 candidates including RPS6 and AKT1S1/PRAS40 as RSK-substrates. […]
(In general: In western blotting, separated proteins are transferred to a membrane and probed.)

Regarding `CC(C)CCN1c2nc(Nc3cc(F)c(O)c(F)c3)ncc2N(C)C(=O)C1C` (centres unmarked) [BI-D1870], under “10 μM for 2 hours, then IFN-γ 1 hour”, the “anti-RXXpS/T immunoblot signal intensities” value is reported as “decrease in signal intensities”. Besides, where the note is “IFN-γ versus RSK-inhibition, two donors”, the “RPS6-pSer235/236 and PRAS40-pThr246 immunoblot” value is “confirming the changes”.
